Toxic doses and inconclusive results are not listed.
Tested on: L1210 leukemia ip in BDF1 mice, survival T/C
Assay: NCI In Vivo Anticancer Drug Screen. Data for tumor model L1210 Leukemia (intraperitoneal) in B6D2F1 (BDF1) mice
Conditions: endpoint: mean survival time, higher = longer survival
Method in brief: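 Transplanted-tumor mice were given test agent; controls received vehicle only. Survival readings from the two groups were divided (treated over control).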

[1] = dose: 100.0 mg/kg/injection, schedule: Q01DX009 (ip), vehicle: saline with Tween-80
[2] = dose: 100.0 mg/kg/injection, schedule: Q04DX003 (ip), vehicle: saline with Tween-80
[3] = dose: 200.0 mg/kg/injection, schedule: Q01DX009 (ip), vehicle: saline with Tween-80
[4] = dose: 200.0 mg/kg/injection, schedule: Q04DX003 (ip), vehicle: saline with Tween-80
[5] = dose: 400.0 mg/kg/injection, schedule: Q01DX009 (ip), vehicle: saline with Tween-80
[6] = dose: 400.0 mg/kg/injection, schedule: Q04DX003 (ip), vehicle: saline with Tween-80
[7] = dose: 100.0 mg/kg/injection, schedule: Q01DX001 (ip), vehicle: saline
[8] = dose: 200.0 mg/kg/injection, schedule: Q01DX001 (ip), vehicle: saline
[9] = dose: 400.0 mg/kg/injection, schedule: Q01DX001 (ip), vehicle: saline
[10] = dose: 100.0 mg/kg/injection, schedule: Q04DX003 (ip), vehicle: Klucel (hydroxypropylcellulose) (HPC)

With `Cc1cc(C)n(/N=C/c2cccc(Cl)c2)c(=O)c1C#N` the T/C [1] was 88 % of control, the T/C [2] was 95 % of control and the T/C [3] was 87 % of control. For the same compound, the T/C [4] was 90 % of control, the T/C [5] was 92 % of control and the T/C [6] was 90 % of control.
With `CCOC=N` the T/C (dose: 50.0 mg/kg/injection, schedule: Q01DX001 (ip), vehicle: saline) was 95 % of control, the T/C [7] was 95 % of control and the T/C [8] was 97 % of control. For the same compound, the T/C [9] was 101 % of control.
With `CCCCC(=O)c1ccc(Cl)cc1` the T/C [10] was 103 % of control, the T/C (dose: 200.0 mg/kg/injection, schedule: Q04DX003 (ip), vehicle: Klucel (hydroxypropylcellulose) (HPC)) was 111 % of control and the T/C (dose: 400.0 mg/kg/injection, schedule: Q04DX003 (ip), vehicle: Klucel (hydroxypropylcellulose) (HPC)) was 104 % of control.
With `CCOC(=O)CC1(C)NC(C(=O)O)C(C)(C)S1` (stereo unspecified) the T/C (dose: 100.0 mg/kg/injection, schedule: Q01DX009 (ip), vehicle: Klucel (hydroxypropylcellulose) (HPC)) was 97 % of control and the T/C (dose: 400.0 mg/kg/injection, schedule: Q01DX009 (ip), vehicle: Klucel (hydroxypropylcellulose) (HPC)) was 97 % of control.
In the case of `O=C(Nc1ccc(F)c([N+](=O)[O-])c1)Nc1ccccc1C(F)(F)F`, the T/C [1] is reported as 90 % of control, the T/C [3] is reported as 96 % of control and the T/C [5] is reported as 97 % of control.
`C=CCOC(=O)Nc1ccc(S(=O)(=O)N(C)C)cc1` was tested, and the T/C (dose: 100.0 mg/kg/injection, schedule: Q01DX001 (ip), vehicle: carboxymethylcellulose (CMC)) was 97 % of control, the T/C (dose: 200.0 mg/kg/injection, schedule: Q01DX001 (ip), vehicle: carboxymethylcellulose (CMC)) was 93 % of control and the T/C (dose: 400.0 mg/kg/injection, schedule: Q01DX001 (ip), vehicle: carboxymethylcellulose (CMC)) was 97 % of control.
`Cc1cc(SCc2ccccc2)cc(C)[o+]1` was tested, and the T/C [7] was 98 % of control, the T/C [8] was 98 % of control and the T/C [9] was 107 % of control.
`NC(=S)N/N=C\c1cccs1` was tested, and the T/C (dose: 100.0 mg/kg/injection, schedule: Q04DX002 (ip), vehicle: Klucel (hydroxypropylcellulose) (HPC)) was 96 % of control, the T/C (dose: 200.0 mg/kg/injection, schedule: Q04DX002 (ip), vehicle: Klucel (hydroxypropylcellulose) (HPC)) was 107 % of control and the T/C (dose: 400.0 mg/kg/injection, schedule: Q04DX002 (ip), vehicle: Klucel (hydroxypropylcellulose) (HPC)) was 102 % of control.
In the case of `Cc1cccc(C2NC(=S)N3C(c4cccc(C)c4)NC(=S)N23)c1` (stereo unspecified), the T/C (dose: 100.0 mg/kg/injection, schedule: Q01DX009 (ip), vehicle: gum acacia) is reported as 100 % of control, the T/C (dose: 100.0 mg/kg/injection, schedule: Q04DX003 (ip), vehicle: gum acacia) is reported as 88 % of control and the T/C (dose: 200.0 mg/kg/injection, schedule: Q01DX009 (ip), vehicle: gum acacia) is reported as 100 % of control. For the same compound, the T/C (dose: 200.0 mg/kg/injection, schedule: Q04DX003 (ip), vehicle: gum acacia) was 88 % of control, the T/C (dose: 400.0 mg/kg/injection, schedule: Q01DX009 (ip), vehicle: gum acacia) was 91 % of control and the T/C (dose: 400.0 mg/kg/injection, schedule: Q04DX003 (ip), vehicle: gum acacia) was 87 % of control.
In the case of `O=[N+]([O-])c1ccc2[nH]c3c(c2c1)CSCC3`, the T/C [1] is reported as 91 % of control, the T/C [2] is reported as 100 % of control and the T/C [3] is reported as 88 % of control. For the same compound, the T/C [4] was 100 % of control, the T/C [5] was 94 % of control and the T/C [6] was 95 % of control.
In the case of `Cc1nc2nc(Cl)c(Cl)nc2[nH]1`, the T/C (dose: 25.0 mg/kg/injection, schedule: Q04DX003 (ip), vehicle: saline with Tween-80) is reported as 92 % of control, the T/C (dose: 50.0 mg/kg/injection, schedule: Q04DX003 (ip), vehicle: saline with Tween-80) is reported as 97 % of control and the T/C [10] is reported as 102 % of control. For the same compound, the T/C [2] was 89 % of control.
In the case of `O=C(Nc1ccc(C2=NCCN2)cc1)c1ccc([N+](=O)[O-])c(C(=O)Nc2ccc(C3=NCCN3)cc2)c1`, the T/C (dose: 10.0 mg/kg/injection, schedule: Q01DX Z (ip), vehicle: carboxymethylcellulose (CMC)) is reported as 108 % of control and the T/C (dose: 19.0 mg/kg/injection, schedule: Q01DX Z (ip), vehicle: carboxymethylcellulose (CMC)) is reported as 108 % of control.
For `Cl[Si](c1ccccc1)(c1ccccc1)c1ccc([Si](Cl)(c2ccccc2)c2ccccc2)cc1`, the T/C (dose: 100.0 mg/kg/injection, schedule: Q04DX002 (ip), vehicle: saline with Tween-80) was 87 % of control, the T/C (dose: 200.0 mg/kg/injection, schedule: Q04DX002 (ip), vehicle: saline with Tween-80) was 92 % of control and the T/C (dose: 400.0 mg/kg/injection, schedule: Q04DX002 (ip), vehicle: saline with Tween-80) was 96 % of control.
In the case of `O=NN(CCCl)C(=O)N[C@@H]1CCCC[C@H]1NC(=O)N(CCCl)N=O`, the T/C (dose: 25.0 mg/kg/injection, schedule: Q01DX001 (ip), vehicle: carboxymethylcellulose (CMC)) is reported as 180 % of control, the T/C (dose: 37.5 mg/kg/injection, schedule: Q01DX001 (ip), vehicle: carboxymethylcellulose (CMC)) is reported as 165 % of control and the T/C (dose: 50.0 mg/kg/injection, schedule: Q01DX001 (ip), vehicle: carboxymethylcellulose (CMC)) is reported as 215 % of control. For the same compound, the T/C (dose: 75.0 mg/kg/injection, schedule: Q01DX001 (ip), vehicle: carboxymethylcellulose (CMC)) was 260 % of control, the T/C [7] was 233 % of control and the T/C (dose: 150.0 mg/kg/injection, schedule: Q01DX001 (ip), vehicle: carboxymethylcellulose (CMC)) was 308 % of control. For the same compound, the T/C [8] was 106 % of control and the T/C (dose: 300.0 mg/kg/injection, schedule: Q01DX001 (ip), vehicle: saline) was 89 % of control.
